{"source": "ChEMBL document CHEMBL1149774", "about": "“Synthesis of N-(5,7-diamino-3-phenyl-quinoxalin-2-yl)-3,4,5-substituted anilines and N-[4[(5,7-diamino-3-phenylquinoxalin-2-yl)amino]benzoyl]-l-glutamic acid diethyl ester: evaluation of in vitro anti-cancer and anti-folate activities” (Eur J Med Chem, 2008)", "key": {"HOP-92": {"test_system": "HOP-92", "assay": "Growth inhibition of human HOP92 cells after 48 hrs by SRB staining method", "assay_type": "functional", "details": "HOP-92, 48 h"}, "COLO 205": {"test_system": "COLO 205", "assay": "Growth inhibition of human COLO205 cells after 48 hrs by SRB staining method", "assay_type": "functional", "details": "COLO 205, 48 h"}, "HCT-116": {"test_system": "HCT-116", "assay": "Growth inhibition of human HCT116 cells after 48 hrs by SRB staining method", "assay_type": "functional", "details": "HCT-116, 48 h"}, "HT-29": {"test_system": "HT-29", "assay": "Growth inhibition of human HT29 cells after 48 hrs by SRB staining method", "assay_type": "functional", "details": "HT-29, 48 h"}, "SF-295": {"test_system": "SF-295", "assay": "Growth inhibition of human SF295 cells after 48 hrs by SRB staining method", "assay_type": "functional", "details": "SF-295, 48 h"}, "SF-539": {"test_system": "SF-539", "assay": "Growth inhibition of human SF539 cells after 48 hrs by SRB staining method", "assay_type": "functional", "details": "SF-539, 48 h"}, "SNB-75": {"test_system": "SNB-75", "assay": "Growth inhibition of human SNB75 cells after 48 hrs by SRB staining method", "assay_type": "functional", "details": "SNB-75, 48 h"}, "M14": {"test_system": "M14", "assay": "Growth inhibition of human M14 cells after 48 hrs by SRB staining method", "assay_type": "functional", "details": "M14, 48 h"}, "UACC-257": {"test_system": "UACC-257", "assay": "Growth inhibition of human UACC257 cells after 48 hrs by SRB staining method", "assay_type": "functional", "details": "UACC-257, 48 h"}, "IGROV-1": {"test_system": "IGROV-1", "assay": "Growth inhibition of human IGROV1 cells after 48 hrs by SRB staining method", "assay_type": "functional", "details": "IGROV-1, 48 h"}, "OVCAR-3": {"test_system": "OVCAR-3", "assay": "Growth inhibition of human OVCAR-3 cells after 48 hrs by SRB staining method", "assay_type": "functional", "details": "OVCAR-3, 48 h"}, "OVCAR-4": {"test_system": "OVCAR-4", "assay": "Growth inhibition of human OVCAR4 cells after 48 hrs by SRB staining method", "assay_type": "functional", "details": "OVCAR-4, 48 h"}, "OVCAR-5": {"test_system": "OVCAR-5", "assay": "Growth inhibition of human OVCAR5 cells after 48 hrs by SRB staining method", "assay_type": "functional", "details": "OVCAR-5, 48 h"}, "CAKI-1": {"test_system": "CAKI-1", "assay": "Growth inhibition of human CAKI1 cells after 48 hrs by SRB staining method", "assay_type": "functional", "details": "CAKI-1, 48 h"}, "TK-10": {"test_system": "TK-10", "assay": "Growth inhibition of human TK10 cells after 48 hrs by SRB staining method", "assay_type": "functional", "details": "TK-10, 48 h"}, "PC-3": {"test_system": "PC-3", "assay": "Growth inhibition of human PC3 cells after 48 hrs by SRB staining method", "assay_type": "functional", "details": "PC-3, 48 h"}, "MCF7": {"test_system": "MCF7", "assay": "Growth inhibition of human MCF7 cells after 48 hrs by SRB staining method", "assay_type": "functional", "details": "MCF7, 48 h"}, "MDA-MB-231": {"test_system": "MDA-MB-231", "assay": "Growth inhibition of human MDA-MB-231 cells after 48 hrs by SRB staining method", "assay_type": "functional", "details": "MDA-MB-231, 48 h"}, "MDA-MB-435": {"test_system": "MDA-MB-435", "assay": "Growth inhibition of human MDA-MB-435 cells after 48 hrs by SRB staining method", "assay_type": "functional", "details": "MDA-MB-435, 48 h"}, "BT-549": {"test_system": "BT-549", "assay": "Growth inhibition of human BT549 cells after 48 hrs by SRB staining method", "assay_type": "functional", "details": "BT-549, 48 h"}, "[1]": {"target": "T1, Dihydrofolate reductase (Homo sapiens) (UniProt P00374)", "T1 sequence (whole entry)": "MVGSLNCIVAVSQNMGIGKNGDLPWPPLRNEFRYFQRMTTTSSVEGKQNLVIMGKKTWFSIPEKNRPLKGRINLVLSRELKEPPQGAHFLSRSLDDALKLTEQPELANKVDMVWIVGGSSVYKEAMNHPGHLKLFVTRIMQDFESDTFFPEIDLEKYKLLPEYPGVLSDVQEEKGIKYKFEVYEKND", "assay": "Inhibition of human dihydrofolate reductase at 10 uM"}, "HL-60": {"test_system": "HL-60", "assay": "Growth inhibition of human HL60 cells after 48 hrs by SRB staining method", "assay_type": "functional", "details": "HL-60, 48 h"}, "MOLT-4": {"test_system": "MOLT-4", "assay": "Growth inhibition of human MOLT4 cells after 48 hrs by SRB staining method", "assay_type": "functional", "details": "MOLT-4, 48 h"}, "Thymidylate synthase": {"target": "T2, Thymidylate synthase (Lactobacillus casei, UniProt P00469)", "T2 sequence (P00469 whole entry)": "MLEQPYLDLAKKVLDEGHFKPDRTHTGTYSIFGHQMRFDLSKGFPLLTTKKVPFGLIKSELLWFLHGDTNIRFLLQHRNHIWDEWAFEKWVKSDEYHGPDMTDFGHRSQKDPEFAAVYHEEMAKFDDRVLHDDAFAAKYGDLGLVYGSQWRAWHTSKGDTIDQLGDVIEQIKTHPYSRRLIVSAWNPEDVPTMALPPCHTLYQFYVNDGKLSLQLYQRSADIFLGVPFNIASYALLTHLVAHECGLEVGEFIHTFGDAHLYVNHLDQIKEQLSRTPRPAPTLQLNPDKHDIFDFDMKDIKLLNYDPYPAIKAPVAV", "description": "Inhibition of Lactobacillus casei thymidylate synthase"}, "[2]": {"details": "read-out: pLC50 (the source's name) (converted)"}}, "note": "Calls of active or inactive are those of the source. No cut-off for these calls is given here.", "data": [{"molecule": "Nc1cc(N)c2nc(-c3ccccc3)c(Nc3ccc(F)cc3)nc2c1", "values": [{"measurement": "GI50", "setting": "HOP-92", "result": 13.2, "unit": "µM"}, {"measurement": "TGI", "setting": "HOP-92; read-out: pTGI (converted)", "result": 43.7, "unit": "µM"}, {"measurement": "GI50", "setting": "COLO 205", "result": 20.4, "unit": "µM"}, {"measurement": "TGI", "setting": "COLO 205; read-out: pTGI (converted)", "result": 56.2, "unit": "µM"}, {"measurement": "GI50", "setting": "HCT-116", "result": 20, "unit": "µM"}, {"measurement": "TGI", "setting": "HCT-116; read-out: pTGI (converted)", "result": "> 100", "unit": "µM"}, {"measurement": "GI50", "setting": "HT-29", "result": 18.6, "unit": "µM"}, {"measurement": "TGI", "setting": "HT-29; read-out: pTGI (converted)", "result": 35.5, "unit": "µM"}, {"measurement": "GI50", "setting": "SF-295", "result": 14.5, "unit": "µM"}, {"measurement": "TGI", "setting": "SF-295; read-out: pTGI (converted)", "result": 32.4, "unit": "µM"}, {"measurement": "GI50", "setting": "SF-539", "result": 11, "unit": "µM"}, {"measurement": "TGI", "setting": "SF-539; read-out: pTGI (converted)", "result": 24.5, "unit": "µM"}, {"measurement": "GI50", "setting": "SNB-75", "result": 20.9, "unit": "µM"}, {"measurement": "TGI", "setting": "SNB-75; read-out: pTGI (converted)", "result": 41.7, "unit": "µM"}, {"measurement": "GI50", "setting": "M14", "result": 16.2, "unit": "µM"}, {"measurement": "TGI", "setting": "M14; read-out: pTGI (converted)", "result": 43.7, "unit": "µM"}, {"measurement": "GI50", "setting": "UACC-257", "result": 15.1, "unit": "µM"}, {"measurement": "TGI", "setting": "UACC-257; read-out: pTGI (converted)", "result": 28.8, "unit": "µM"}, {"measurement": "GI50", "setting": "IGROV-1", "result": 16.6, "unit": "µM"}, {"measurement": "TGI", "setting": "IGROV-1; read-out: pTGI (converted)", "result": "> 100", "unit": "µM"}, {"measurement": "GI50", "setting": "OVCAR-3", "result": 4.68, "unit": "µM"}, {"measurement": "TGI", "setting": "OVCAR-3; read-out: pTGI (converted)", "result": 17.8, "unit": "µM"}, {"measurement": "GI50", "setting": "OVCAR-4", "result": 13.5, "unit": "µM"}, {"measurement": "TGI", "setting": "OVCAR-4; read-out: pTGI (converted)", "result": 49, "unit": "µM"}, {"measurement": "GI50", "setting": "OVCAR-5", "result": 38, "unit": "µM"}, {"measurement": "TGI", "setting": "OVCAR-5; read-out: pTGI (converted)", "result": "> 100", "unit": "µM"}, {"measurement": "GI50", "setting": "CAKI-1", "result": 19.1, "unit": "µM"}, {"measurement": "CC50", "setting": "CAKI-1; [2]", "result": 85.1, "unit": "µM"}, {"measurement": "TGI", "setting": "CAKI-1; read-out: pTGI (converted)", "result": 40.7, "unit": "µM"}, {"measurement": "GI50", "setting": "TK-10", "result": 17.4, "unit": "µM"}, {"measurement": "CC50", "setting": "TK-10; [2]", "result": 74.1, "unit": "µM"}, {"measurement": "TGI", "setting": "TK-10; read-out: pTGI (converted)", "result": 35.5, "unit": "µM"}, {"measurement": "GI50", "setting": "PC-3", "result": 11.7, "unit": "µM"}, {"measurement": "CC50", "setting": "PC-3; [2]", "result": "> 100", "unit": "µM"}, {"measurement": "TGI", "setting": "PC-3; read-out: pTGI (converted)", "result": "> 100", "unit": "µM"}, {"measurement": "GI50", "setting": "MCF7", "result": 12.6, "unit": "µM"}, {"measurement": "CC50", "setting": "MCF7; [2]", "result": "> 100", "unit": "µM"}, {"measurement": "TGI", "setting": "MCF7; read-out: pTGI (converted)", "result": "> 100", "unit": "µM"}, {"measurement": "GI50", "setting": "MDA-MB-231", "result": 11, "unit": "µM"}, {"measurement": "CC50", "setting": "MDA-MB-231; [2]", "result": 85.1, "unit": "µM"}, {"measurement": "TGI", "setting": "MDA-MB-231; read-out: pTGI (converted)", "result": 30.2, "unit": "µM"}, {"measurement": "GI50", "setting": "MDA-MB-435", "result": 7.41, "unit": "µM"}, {"measurement": "CC50", "setting": "MDA-MB-435; [2]", "result": 50.1, "unit": "µM"}, {"measurement": "TGI", "setting": "MDA-MB-435; read-out: pTGI (converted)", "result": 20.9, "unit": "µM"}, {"measurement": "GI50", "setting": "BT-549", "result": 12, "unit": "µM"}, {"measurement": "CC50", "setting": "BT-549; [2]", "result": 63.1, "unit": "µM"}, {"measurement": "TGI", "setting": "BT-549; read-out: pTGI (converted)", "result": 26.9, "unit": "µM"}, {"measurement": "Activity", "setting": "[1]", "result": "inactive"}, {"measurement": "GI50", "setting": "HL-60", "result": 11.2, "unit": "µM"}, {"measurement": "CC50", "setting": "HL-60; [2]", "result": "> 100", "unit": "µM"}, {"measurement": "TGI", "setting": "HL-60; read-out: pTGI (converted)", "result": "> 100", "unit": "µM"}, {"measurement": "GI50", "setting": "MOLT-4", "result": "> 100", "unit": "µM"}, {"measurement": "CC50", "setting": "MOLT-4; [2]", "result": "> 100", "unit": "µM"}, {"measurement": "TGI", "setting": "MOLT-4; read-out: pTGI (converted)", "result": "> 100", "unit": "µM"}, {"measurement": "Ki", "setting": "Thymidylate synthase", "result": 3, "unit": "µM"}]}]}
